# Measured values published in patent US7199113B2, “Pharmaceutically active compounds and methods of use thereof” (priority 1998, dated 2007).
# Where two headings read alike, the source gives them in different places.
# Experiments:
# Type in all cases: biochemical
# FIXa = target: T1, FIXa (Homo sapiens, UniProt P00740); test: FIXa-dependent FX activation assay; details: statement on Table 2 (FIG. 2(b))
# T1 construct: FIX was first converted to FIXa by TF/VIIa in the absence of compound; purchased Enzyme Research Laboratories Inc
# Protocol: FIX was first converted to FIXa by TF/VIIa in the absence of compound. This was done in a 50-ml tube. After incubating TF/VIIa (0.67 nM, 10 ml) at 37° C. for 15 minutes, FIX (300 nM, 0.123 ml) was added and incubated at 37° C. for 30 minutes. Then 1.54 ml of EDTA (400 mM) was added to stop the FIX activation. Then 65 μl of the above FIXa sample was transferred into wells of a 96-well plate that contain 5 μl of diluted DMSO (or buffer) or compound (in diluted DMSO or buffer). Ten μl of FX (1000 nM), 10 μl of polylysine (300 nM), and 10 μl of Spectrozyme FXa (5 mM) were added to each well and incubate at 37° C. until an OD405 nm value of ˜0.8 was reached. Absorbance at 405 nm was then measured following addition of 20 μl of 50% acetic acid. The percent inhibition of FIXa activity was calculated from OD405 nm values in the absence and presence of a compound.
# thrombin = target: T2, thrombin (Homo sapiens, UniProt P00734); test: Thrombin activity assay; details: statement on Table 1 (FIG. 2(a))
# T2 construct: followed by addition of 10 μl of thrombin (20 nM); purchased Enzyme Research Laboratories Inc
# Protocol: For thrombin activity assay, 55 μl of buffer was mixed with 5 μl of DMSO or compound, followed by addition of 10 μl of thrombin (20 nM). Mix and incubate at 37° C. for 10 minutes. Then 10 μl of substrate S-2238 was added and allowed to incubate at 37° C. for 15–20 minutes. Absorbance at 405 nm was then measured and the percent inhibition of thrombin activity was calculated from OD405 nm values in the absence and presence of a compound.
# [1] = target: T3, human recombinant TF/VIIa complex (lipidated) (Homo sapiens, UniProt P13726); test: TF/VIIa-dependent FX activation assay; details: for outcome of primary and secondary screening (TF antagonism): inhibit FX activation at lower concentrations (<0.1 mM) without significant effects on protease activities; for blocking activity in standard assay for TF/VIIa-dependent factor X activation: statement on FIG. 3
# T3 construct: Truncated recombinant human tissue factor (e.g. composed of 243 amino acids) is expressed in E. coli; host or cells: E. coli (TF)
# Protocol: A more particular example of the primary screening assay discussed previously is as follows. The assay is standard for measuring TF/VIIa-dependent factor X activation. […] In a more preferred embodiment, the primary screening preferably includes the following steps. • 1) admixing in a suitable assay solution about 0.1 nM of human recombinant TF/VIIa complex (lipidated), about 180 nM human FX, and between from about 0.5 μl to about 10 μl of at least one compound to be tested (optionally dissolved in an appropriate vehicle such as water or dimethylsulfoxide (DMSO)) and incubating the reaction at 37° C. for a few minutes up to about an hour or more, • 2) contacting the solution with a suitable chelating agent such as ethylenediaminietetra acetic acid (EDTA) to reduce or stop factor X activation, • 3) contacting the solution with a detectable amount of a chromogenic substrate specific for FXa (e.g., Spectrozyme FXa or S-2765) and incubating same at 37° C.; and • 4) detecting chromophore produced in the solution as being indicative of the factor X activation.
# The primary screening for compounds that inhibit tissue factor/factor VIIa (TF/VIIa) is based on TF/VIIa-dependent FX activation assay (See flow chart in FIG. 1 of the drawings). In this assay, the ability of TF/VIIa complex to activate FX is determined in two discontinuous stages. […] In the second stage (FXa activity assay), EDTA is added at indicated times to the FX activation mixture to chelate calcium, thus leading to the termination of FX→FXa conversion. Calcium is required for TF/VIIa activity. The activity of FXa is then measured by FXa-specific chromogenic substrates such as S-2222, S-2765, or Spectrozyme FXa. In the primary screening, compounds from a previously prepared chemical library are first tested at relatively high concentrations (˜0.833 mM) in TF/VIIa-dependent FX activation assay to identify hits of potential TF pathway antagonists (see FIG. 1). However, it is evident that the inhibition of TF/VIIa-dependent FX activation by a compound in this enzyme-coupled assay can be attributed to effects of the compound on TF/VIIa and/or FXa activities. Thus, secondary screening tests are designed to determine how inhibition takes place and the inhibition mechanism. In secondary screening experiments, effects of those compounds identified from primary screening are tested on catalytic activities of factor VIIa (FVIIa), factor IXa (FIXa), factor Xa (FXa), thrombin, Russell's viper venom (RVV), and trypsin.
# Primary screening was done in duplicate in 96-well plates using the TF/VIIa-dependent FX activation assay. All compounds to be screened were dissolved in dimethyl sulfoxide (DMSO), other reagents were prepared or diluted in 25 mM HEPES-NaOH, 5 mM CaCl2, 150 mM NaCl, 0.1% BSA, pH 7.5. For assays where TF was used, purified human recombinant TF (100 nM) was first lipidated with phosphatidylcholine (0.07 mg/ml) and phosphatidylserine (0.03 mg/ml) in 50 mM Tris-HCl, pH 7.5, 0.1% bovine serum albumin (BSA) for 30 minutes at 37° C. A stock solution of TF/VIIa complex was then prepared by combining equal volumes of 100 nM lipidated TF and 100 nM FVIIa The complex was incubated at 37° C. for 30 minutes and then was aliquoted and stored at −70° C. for future uses.
# For screening assays, 5 μl of each compound (about 10 mM in DMSO) or DMSO were placed in each well of a 96-well plate, followed by adding 45 μl of TF/VIIa complex (0.1 nM). The components in each well were mixed either with pipette tips or by shaking the plate on a Lab-Line titer plate shaker for 30 seconds. After 15 minutes incubation of the plate at a 37° C., 10 μl of human FX (180 nM) was added to each well and mixed as above. The plate was then incubated at 37° C. for 3 to 15 minutes, followed by addition of 10 μl of EDTA (400 mM in 144 mM HEPES, 864 mM NaCl, 0.576% BSA, pH adjusted to 7.5) to each well to terminate FX activation. […]
# [2] = titration, data of Table 3 (FIG. 2(c)), primary screening method, read-out: IC50 (inhibitor concentration at which 50% of TF/VIIa-dependent FX activation is inhibited)
# T3 sequence (P13726 33-275 limits assumed): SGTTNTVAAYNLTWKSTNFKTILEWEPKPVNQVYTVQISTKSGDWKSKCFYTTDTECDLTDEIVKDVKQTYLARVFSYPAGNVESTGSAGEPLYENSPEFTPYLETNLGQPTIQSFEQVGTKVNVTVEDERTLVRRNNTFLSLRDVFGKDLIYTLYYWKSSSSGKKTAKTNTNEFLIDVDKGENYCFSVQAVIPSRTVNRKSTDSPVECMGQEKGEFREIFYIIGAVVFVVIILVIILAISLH
# T3 sequence (P08709 61-212 partner limits assumed): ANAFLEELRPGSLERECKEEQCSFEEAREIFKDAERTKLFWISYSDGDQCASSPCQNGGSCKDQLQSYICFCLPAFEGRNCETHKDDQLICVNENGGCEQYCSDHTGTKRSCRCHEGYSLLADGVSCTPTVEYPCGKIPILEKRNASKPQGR
# T3 sequence (P08709 213-466 partner limits assumed): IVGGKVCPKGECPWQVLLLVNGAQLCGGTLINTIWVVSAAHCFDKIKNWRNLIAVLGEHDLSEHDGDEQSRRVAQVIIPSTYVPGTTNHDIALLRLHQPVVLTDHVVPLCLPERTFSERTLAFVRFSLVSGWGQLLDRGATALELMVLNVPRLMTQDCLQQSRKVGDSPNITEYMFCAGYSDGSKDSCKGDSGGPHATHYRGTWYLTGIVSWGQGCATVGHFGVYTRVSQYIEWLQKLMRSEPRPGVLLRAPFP
# T1 sequence (P00740 227-461 limits assumed): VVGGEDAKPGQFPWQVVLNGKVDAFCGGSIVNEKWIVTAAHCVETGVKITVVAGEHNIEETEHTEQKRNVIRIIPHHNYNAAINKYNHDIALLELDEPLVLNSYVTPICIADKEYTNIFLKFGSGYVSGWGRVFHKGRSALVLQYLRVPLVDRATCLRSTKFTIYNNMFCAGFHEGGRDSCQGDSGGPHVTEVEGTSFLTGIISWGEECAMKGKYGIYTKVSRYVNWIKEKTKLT
# T1 sequence (P00740 47-191 limits assumed): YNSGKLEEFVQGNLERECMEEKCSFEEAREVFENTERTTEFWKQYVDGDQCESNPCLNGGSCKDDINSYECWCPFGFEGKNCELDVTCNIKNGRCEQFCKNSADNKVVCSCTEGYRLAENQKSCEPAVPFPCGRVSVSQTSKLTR
Compound,inhibition of FIXa activity (FIXa-dependent FX activation) (FIXa),inhibition of thrombin activity (thrombin),"IC50 ([1]; compound preincubated with TF/VIIa 15 minutes at 37° C. prior to FX, FX 30 nM, read-out: IC50, TF/VIIa-dependent FX activation) [µM]",outcome of primary and secondary screening (TF antagonism) [1],"effect on apparent Km values for FX substrate ([1]; kinetic analysis, FIG. 5)","mode of inhibition of TF/VIIa complex ([1]; kinetic analysis, FIG. 5)",blocking activity in standard assay for TF/VIIa-dependent factor X activation [1],"IC50 [1, 2] [µM]"
"O=P(O)(O)C(CNc1cccc(O)c1)P(=O)(O)O [Compound 1, 1-(bisphosponate)-2-amino(3-hydroxyphenyl)ethyl]",do not inhibit FIXa activity,do not inhibit thrombin activity,12.5,strong TF antagonists,significantly increased,competitive inhibitor,good blocking activity,19
O=P(O)(O)C(CNc1ccc(O)cc1)P(=O)(O)O [Compound 2],do not inhibit FIXa activity,do not inhibit thrombin activity,–,strong TF antagonists,–,–,good blocking activity,9.7
